Laboratory results reported in patent US8822503B2, “2-pyridone compounds” (Taisho Pharmaceutical Co., Ltd, priority 2009, dated 2014).

Molecular target: T1, human liver GK (Homo sapiens, UniProt P35557)
T1 construct: GST (glutathione S-transferase) (N); made in house; host or cells: E. coli
T1 sequence (P35557 1-466 isoform P35557-2): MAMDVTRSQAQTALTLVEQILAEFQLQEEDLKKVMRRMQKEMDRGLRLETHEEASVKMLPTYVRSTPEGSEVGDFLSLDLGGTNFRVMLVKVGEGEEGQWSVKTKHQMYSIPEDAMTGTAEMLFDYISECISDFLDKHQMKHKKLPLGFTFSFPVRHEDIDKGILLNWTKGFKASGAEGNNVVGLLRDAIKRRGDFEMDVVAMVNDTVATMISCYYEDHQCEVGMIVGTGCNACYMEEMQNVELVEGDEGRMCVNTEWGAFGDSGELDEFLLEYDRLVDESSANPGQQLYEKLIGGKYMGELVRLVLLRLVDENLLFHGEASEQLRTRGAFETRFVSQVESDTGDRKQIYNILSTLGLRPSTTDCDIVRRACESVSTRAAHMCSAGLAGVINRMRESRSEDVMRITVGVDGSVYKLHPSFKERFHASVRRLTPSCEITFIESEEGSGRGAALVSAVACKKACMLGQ
Assay: GK activation test
Assay type: biochemical
Conditions: test compound concentration needed to activate 50% of maximum activation ability; 4 mM 14C-labeled glucose, 2 mM ATP, room temperature, 20 minutes
Outline: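 GST-tagged human liver GK from E. coli (0.24 μg/well) with 4 mM 14C-glucose, 2 mM ATP in Hepes-KOH pH 7.1, KCl, MgCl2, DTT, 1% DMSO, 20 min room temperature. Labeled glucose 6-phosphate captured on anion resin, eluted and counted. EC50 = concentration giving half of maximal activation.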

Row | SMILES | EC50 [nM]
1 | CSc1ccc(/C(=C\C2CCOC2)c2ccc(C3CC3)c(=O)[nH]2)cc1 (stereo not shown) [Example 1-47, 3-Cyclopropyl-6-[(E)-1-[4-(methylsulfanyl)phenyl]-2-(tetrahydrofuran-3-yl)ethenyl]pyridin-2(1H)-one] | 10 to 500
2 | O=c1[nH]c(/C(=C/C2CCOC2)c2ccc(SC3CC3)cc2)ccc1C(F)(F)F (stereo not shown) [Example 1-48, 6-{(E)-1-[4-(Cyclopropylsulfanyl)phenyl]-2-(tetrahydrofuran-3-yl)ethenyl}-3-(trifluoromethyl)pyridin-2(1H)-one] | 500 to 3000
3 | CSc1ccc(/C(=C\CC2CCOC2)c2ccc(C3CC3)c(=O)[nH]2)cc1 (stereo not shown) [Example 1-49, 3-Cyclopropyl-6-{(1E)-1-[4-(methylsulfanyl)phenyl]-3-(tetrahydrofuran-3-yl)prop-1-en-1-yl}pyridin-2(1H)-one] | 500 to 3000
4 | COc1ccc(/C(=C\CC2CCCO2)c2ccc(C3CC3)c(=O)[nH]2)cc1Cl (stereo not shown) [Example 1-50, 6-[(1E)-1-(3-Chloro-4-methoxyphenyl)-3-(tetrahydrofuran-2-yl)prop-1-en-1-yl]-3-cyclopropylpyridin-2(1H)-one] | 500 to 3000
5 | COc1ccc(/C(=C\C2CCOCC2)c2ccc(C3CC3)c(=O)[nH]2)cc1 [Example 1-51, 3-Cyclopropyl-6-[(E)-1-(4-methoxyphenyl)-2-(tetrahydro-2H-pyran-4-yl)ethenyl]pyridin-2(1H)-one] | 500 to 3000
6 | CCOc1ccc(/C(=C\C2CCOCC2)c2ccc(C3CC3)c(=O)[nH]2)cc1 [Example 1-52, 3-Cyclopropyl-6-[(E)-1-(4-ethoxyphenyl)-2-(tetrahydro-2H-pyran-4-yl)ethenyl]pyridin-2(1H)-one] | 500 to 3000
7 | COc1ccc(/C(=C\C2CCOCC2)c2ccc(C3CC3)c(=O)[nH]2)cc1Cl [Example 1-53, 6-[(E)-1-(3-Chloro-4-methoxyphenyl)-2-(tetrahydro-2H-pyran-4-yl)ethenyl]-3-cyclopropylpyridin-2(1H)-one] | 500 to 3000
8 | COc1ccc(/C(=C\C2CCOCC2)c2ccc(C(F)(F)F)c(=O)[nH]2)cc1Cl [Example 1-54, 6-[(E)-1-(3-Chloro-4-methoxyphenyl)-2-(tetrahydro-2H-pyran-4-yl)ethenyl]-3-(trifluoromethyl)pyridin-2(1H)-one] | 500 to 3000
9 | CSc1ccc(/C(=C\C2CCOCC2)c2ccc(C)c(=O)[nH]2)cc1Cl [Example 1-55, 6-[(E)-1-[3-Chloro-4-(methylsulfanyl)phenyl]-2-(tetrahydro-2H-pyran-4-yl)ethenyl]-3-methylpyridin-2(1H)-one] | 500 to 3000
10 | Cc1ccc(/C(=C/C2CCOCC2)c2ccc(S(C)(=O)=O)c(Cl)c2)[nH]c1=O [Example 1-56, 6-{(E)-1-[3-Chloro-4-(methylsulfonyl)phenyl]-2-(tetrahydro-2H-pyran-4-yl)ethenyl}-3-methylpyridin-2(1H)-one] | 500 to 3000
11 | CCN(CC)CCCOc1ccc(/C(=C\C2CCOCC2)c2ccc(C3CC3)c(=O)[nH]2)cc1Cl [Example 1-57, 6-[(E)-1-{3-Chloro-4-[3-(diethylamino)propoxy]phenyl}-2-(tetrahydro-2H-pyran-4-yl)ethenyl]-3-cyclopropylpyridin-2(1H)-one] | 500 to 3000
12 | CCc1ccc(/C(=C\[C@H]2CCC(=O)C2)c2ccc(C3CC3)c(=O)[nH]2)cc1 [Example 1-58, 3-Cyclopropyl-6-{(E)-1-(4-ethylphenyl)-2-[(1S)-3-oxocyclopentyl]ethenyl}pyridin-2(1H)-one] | 10 to 500
13 | CCOc1ccc(/C(=C\[C@H]2CCC(=O)C2)c2ccc(CC)c(=O)[nH]2)cc1Cl [Example 1-59, 6-{(E)-1-(3-Chloro-4-ethoxyphenyl)-2-[(1S)-3-oxocyclopentyl]ethenyl}-3-ethylpyridin-2(1H)-one] | 10 to 500
14 | Cc1ccc(/C(=C/[C@H]2CCC(=O)C2)c2ccc(SC3CC3)cc2)[nH]c1=O [Example 1-60, 6-{(E)-1-[4-(Cyclopropylsulfanyl)phenyl]-2-[(1S)-3-oxocyclopentyl]ethenyl}-3-methylpyridin-2(1H)-one] | 10 to 500
15 | Cc1ccc(/C(=C/[C@H]2CCC(=O)C2)c2ccc(S(=O)(=O)C3CC3)cc2)[nH]c1=O [Example 1-61, 6-{(E)-1-[4-(Cyclopropylsulfonyl)phenyl]-2-[(1S)-3-oxocyclopentyl]ethenyl}-3-methylpyridin-2(1H)-one] | 10 to 500
16 | CCc1ccc(/C(=C/[C@H]2CCC(=O)C2)c2ccc(S(=O)(=O)C3CC3)cc2)[nH]c1=O [Example 1-62, 6-{(E)-1-[4-(Cyclopropylsulfonyl)phenyl]-2-[(1S)-3-oxocyclopentyl]ethenyl}-3-ethylpyridin-2(1H)-one] | 10 to 500

Row | SMILES | EC50 [nM]
17 | O=C1CC[C@H](/C=C(\c2ccc(S(=O)(=O)C3CC3)cc2)c2ccc(C(F)(F)F)c(=O)[nH]2)C1 [Example 1-63, 6-{(E)-1-[4-(Cyclopropylsulfonyl)phenyl]-2-[(1S)-3-oxocyclopentyl]ethenyl}-3-(trifluoromethyl)pyridin-2(1H)-one] | 500 to 3000
18 | CSc1ccc(/C(=C\[C@H]2CCC(=O)C2)c2ccc(C(C)C)c(=O)[nH]2)cc1 [Example 1-64, 6-{(E)-1-[4-(Methylsulfanyl)phenyl]-2-[(1S)-3-oxocyclopentyl]ethenyl}-3-(propan-2-yl)pyridin-2(1H)-one] | 10 to 500
19 | CSc1ccc(/C(=C\[C@H]2CCC(=O)C2)c2ccc(C3CC3)c(=O)[nH]2)cc1 [Example 1-65, 3-Cyclopropyl-6-{(E)-1-[4-(methylsulfanyl)phenyl]-2-[(1S)-3-oxocyclopentyl]ethenyl}pyridin-2(1H)-one] | 10 to 500
20 | CCN(CC)CCCOc1ccc(/C(=C\[C@H]2CCC(=O)C2)c2ccc(C3CC3)c(=O)[nH]2)cc1 [Example 1-66, 3-Cyclopropyl-6-{(E)-1-{4-[3-(diethylamino)propoxy]phenyl}-2-[(1S)-3-oxocyclopentyl]ethenyl}pyridin-2(1H)-one] | 500 to 3000
21 | CSc1ccc(/C(=C\[C@H]2CCC(=O)C2)c2ccc(C)c(=O)[nH]2)cc1Cl [Example 1-67, 6-{(E)-1-[3-Chloro-4-(methylsulfanyl)phenyl]-2-[(1S)-3-oxocyclopentyl]ethenyl}-3-methylpyridin-2(1H)-one] | 10 to 500
22 | Cc1ccc(/C(=C/[C@H]2CCC(=O)C2)c2ccc(S(C)(=O)=O)c(Cl)c2)[nH]c1=O [Example 1-68, 6-{(E)-1-[3-Chloro-4-(methylsulfonyl)phenyl]-2-[(1S)-3-oxocyclopentyl]ethenyl}-3-methylpyridin-2(1H)-one] | 500 to 3000
23 | CCc1ccc(/C(=C/[C@H]2CCC(=O)C2)c2ccc(SC)c(Cl)c2)[nH]c1=O [Example 1-69, 6-{(E)-1-[3-Chloro-4-(methylsulfanyl)phenyl]-2-[(1S)-3-oxocyclopentyl]ethenyl}-3-ethylpyridin-2(1H)-one] | 10 to 500
24 | CCc1ccc(/C(=C/[C@H]2CCC(=O)C2)c2ccc(S(C)(=O)=O)c(Cl)c2)[nH]c1=O [Example 1-70, 6-{(E)-1-[3-Chloro-4-(methylsulfonyl)phenyl]-2-[(1S)-3-oxocyclopentyl]ethenyl}-3-ethylpyridin-2(1H)-one] | 10 to 500
25 | CSc1ccc(/C(=C\[C@H]2CCC(=O)C2)c2ccc(C3CC3)c(=O)[nH]2)cc1Cl [Example 1-71, 6-{(E)-1-[3-Chloro-4-(methylsulfanyl)phenyl]-2-[(1S)-3-oxocyclopentyl]ethenyl}-3-cyclopropylpyridin-2(1H)-one] | 10 to 500
26 | CS(=O)(=O)c1ccc(/C(=C\[C@H]2CCC(=O)C2)c2ccc(C3CC3)c(=O)[nH]2)cc1Cl [Example 1-72, 6-{(E)-1-[3-Chloro-4-(methylsulfonyl)phenyl]-2-[(1S)-3-oxocyclopentyl]ethenyl}-3-cyclopropylpyridin-2(1H)-one] | 10 to 500
27 | Cc1ccc(/C(=C/[C@H]2CCC(=O)C2)c2ccc(SCCCO)c(Cl)c2)[nH]c1=O [Example 1-73, 6-{(E)-1-{3-Chloro-4-[(3-hydroxypropyl)sulfanyl]phenyl}-2-[(1S)-3-oxocyclopentyl]ethenyl}-3-methylpyridin-2(1H)-one] | 10 to 500
28 | Cc1ccc(/C(=C/[C@H]2CCC(=O)C2)c2ccc(S(=O)(=O)CCCO)c(Cl)c2)[nH]c1=O [Example 1-74, 6-{(E)-1-{3-Chloro-4-[(3-hydroxypropyl)sulfonyl]phenyl}-2-[(1S)-3-oxocyclopentyl]ethenyl}-3-methylpyridin-2(1H)-one] | 500 to 3000
29 | CCc1ccc(/C(=C/[C@H]2CCC(=O)C2)c2ccc(SCCCO)c(Cl)c2)[nH]c1=O [Example 1-75, 6-{(E)-1-{3-Chloro-4-[(3-hydroxypropyl)sulfanyl]phenyl}-2-[(1S)-3-oxocyclopentyl]ethenyl}-3-ethylpyridin-2(1H)-one] | 10 to 500
30 | CCc1ccc(/C(=C/[C@H]2CCC(=O)C2)c2ccc(S(=O)(=O)CCCO)c(Cl)c2)[nH]c1=O [Example 1-76, 6-{(E)-1-{3-Chloro-4-[(3-hydroxypropyl)sulfonyl]phenyl}-2-[(1S)-3-oxocyclopentyl]ethenyl}-3-ethylpyridin-2(1H)-one] | 10 to 500
31 | CCc1ccc(/C(=C/[C@H]2CCC(=O)C2)c2ccc(SCCCN(CC)CC)c(Cl)c2)[nH]c1=O [Example 1-77, 6-{(E)-1-(3-Chloro-4-{[3-(diethylamino)propyl]sulfanyl}phenyl)-2-[(1S)-3-oxocyclopentyl]ethenyl}-3-ethylpyridin-2(1H)-one] | 10 to 500
